Assays:
Type in all cases: functional
Cavia porcellus [1] = species on record: Cavia porcellus; test: Tested for the ability to inhibit spontaneous tone in guinea pig trachealis by 50%, activity expresses as negative logarithm of molar concentration
Rattus norvegicus [2] = species on record: Rattus norvegicus; test: Tested for relaxation of rat aorta smooth muscle precontracted with 30 mM KCI by 50%, activity expresses as negative logarithm of molar concentration
Cavia porcellus [3] = species on record: Cavia porcellus; test: Tested for relaxation of guinea pig trachealis smooth muscle
Rattus norvegicus [4] = species on record: Rattus norvegicus; test: Tested for relaxation of rat aorta smooth muscle

CCN(C)/C(=N\C#N)C1=CC(C)(C)Oc2ccc([N+](=O)[O-])cc21
EC50 (Cavia porcellus [1]): 178 nM | EC50 (Rattus norvegicus [2]): > 31600 nM | IA (Cavia porcellus [3]): 77.9%

CC(N/C(=N\C#N)Nc1ccncc1)C(C)(C)C (configuration not stated) [PINACIDIL ANHYDROUS]
IA (Cavia porcellus [3]): 97.3% | IA (Rattus norvegicus [4]): 91.9%

C/N=C(/NC#N)C1=CC(C)(C)Oc2ccc(C#N)cc21
EC50 (Cavia porcellus [1]): 646 nM | IA (Cavia porcellus [3]): 86% | IA (Rattus norvegicus [4]): 73%

CC1(C)Oc2ccc(C#N)cc2[C@H](N2CCCC2=O)[C@H]1O (single isomer, unassigned) [(-)-CROMAKALIM]
IA (Cavia porcellus [3]): 85.1% | IA (Rattus norvegicus [4]): 74.7%

CC/N=C(/NC#N)C1=CC(C)(C)Oc2ccc([N+](=O)[O-])cc21
EC50 (Cavia porcellus [1]): 170 nM | EC50 (Rattus norvegicus [2]): 89.1 nM | IA (Cavia porcellus [3]): 85.3% | IA (Rattus norvegicus [4]): 75.1%

C/N=C(/NC#N)C1=CC(C)(C)Oc2ccc([N+](=O)[O-])cc21
EC50 (Cavia porcellus [1]): 23.4 nM | EC50 (Rattus norvegicus [2]): 15.1 nM | IA (Cavia porcellus [3]): 86.5% | IA (Rattus norvegicus [4]): 79.9%

CCN(CC)/C(=N\C#N)C1=CC(C)(C)Oc2ccc([N+](=O)[O-])cc21
EC50 (Cavia porcellus [1]): > 31600 nM | EC50 (Rattus norvegicus [2]): > 31600 nM

CN(C)/C(=N\C#N)C1=CC(C)(C)Oc2ccc([N+](=O)[O-])cc21
EC50 (Rattus norvegicus [2]): > 31600 nM | IA (Cavia porcellus [3]): 90.6%
